Reference: patent US11752188B2, “Compositions and methods for nutritional supplements” (DailyColors Health Inc., priority 2020, dated 2023)
Where two headings read alike, the source gives them in different places.

Experiments:
[1] = target: recombinant human Cathepsin S (Homo sapiens, UniProt P25774); test: Cathepsin S in vitro enzymatic assay (fluorogenic substrate); format: biochemical
Method: Assay Conditions: Cathepsin S was activated by diluting the concentrated storage stock into the acidic assay buffer for 30 minutes at room temperature. Then, 5 μl of the sample or reference inhibitor was added to 20 μl of enzyme solution and pre-incubated for 30 minutes. The enzymatic reactions were started by the addition of 25 μl of the fluorogenic substrate, for a total reaction volume of 50 μl. Reaction time was 60 minutes, and then fluorescence intensity at an excitation of 360 nm and an emission of 460 nm was read using a Tecan Infinite M1000 microplate reader.
(§1) Data Analysis: Enzyme activity assays were performed in duplicates at each concentration. The fluorescence intensity data were analyzed and compared. In the absence of the compound, the intensity in each data set was defined as 100% (Ce) activity. In the absence of enzyme, the intensity in each data set was defined as 0% (C0) activity. […] Compound fluorescence was removed by subtracting fluorescence at reaction time=0.

recombinant human CD38 = target: T1, recombinant human CD38 (Homo sapiens, UniProt P28907); test: CD38 hydrolase in vitro enzymatic assay (ε-NAD+ substrate); format: biochemical
T1 construct: purchased 71277
T1 sequence (P28907 1-300): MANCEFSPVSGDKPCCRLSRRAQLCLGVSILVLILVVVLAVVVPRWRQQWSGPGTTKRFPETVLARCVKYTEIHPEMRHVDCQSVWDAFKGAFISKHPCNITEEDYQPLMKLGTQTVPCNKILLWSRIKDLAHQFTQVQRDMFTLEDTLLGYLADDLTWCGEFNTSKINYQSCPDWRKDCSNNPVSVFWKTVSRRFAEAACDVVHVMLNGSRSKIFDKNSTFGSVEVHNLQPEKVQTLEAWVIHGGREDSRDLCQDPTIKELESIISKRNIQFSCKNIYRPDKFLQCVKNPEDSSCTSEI
Description: Here, DC-5=Yellow Blend, DC-9=Purple Blend, DC-21-Green Blend, DC-13=Red Blend DCH-TIV 1.0 (Adult Centrum Multivitamins). The red blend included Apple Extract, Pomegranate Extract, Tomato Powder, Beet; the green blend included Olive Extract, Rosemary Extract, Green Coffee Bean Extract, Kale; the orange/yellow blend included Onion Extract, Ginger Extract, Grapefruit Extract, Carrot; and the purple/blue blend included Grape, Blueberry Extract, Currant, and Elderberry as listed above.
Assay Conditions: 10 μl of the sample or reference inhibitor was added to 20 μl of enzyme solution and pre-incubated for 30 minutes. The enzymatic reactions were started by the addition of 20 μl of the substrate ε-NAD+, for a total reaction volume of 50 μl. Reaction time was 10 minutes, and then fluorescence intensity at an excitation of 300 nm and an emission of 410 nm was read using a Tecan Infinite M1000 microplate reader.
as §1

Chain of recombinant human Cathepsin S (P25774 115-331): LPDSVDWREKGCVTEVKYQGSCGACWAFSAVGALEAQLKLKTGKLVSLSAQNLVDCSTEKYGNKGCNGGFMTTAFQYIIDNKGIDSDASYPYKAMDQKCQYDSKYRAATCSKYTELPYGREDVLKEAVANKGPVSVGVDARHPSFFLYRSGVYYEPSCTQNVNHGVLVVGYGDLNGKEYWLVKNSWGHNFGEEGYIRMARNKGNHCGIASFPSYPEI

SMILES: CC(C)C[C@H](NC(=O)[C@H]1O[C@@H]1C(=O)O)C(=O)NCCCCN=C(N)N [E-64]
- Activity (%) Repeat 1 ([1]; 1 nM, Table 35): 98%
- Activity (%) Repeat 2 ([1]; 1 nM, Table 35): 95%
- Inhibition (%) ([1]; 1 nM, Table 35): 4%
- Net Signal (Fluorescence counts) Repeat 1 ([1]; 1 nM, Table 35): 9894 Fluorescence counts
- Net Signal (Fluorescence counts) Repeat 2 ([1]; 1 nM, Table 35): 9604 Fluorescence counts
- Activity (%) Repeat 1 ([1]; 1 nM, Table 36): 99%
- Activity (%) Repeat 2 ([1]; 1 nM, Table 36): 100%
- Inhibition (%) ([1]; 1 nM, Table 36): 1%
- Net Signal (Fluorescence counts) Repeat 1 ([1]; 1 nM, Table 36): 8864 Fluorescence counts
- Net Signal (Fluorescence counts) Repeat 2 ([1]; 1 nM, Table 36): 8931 Fluorescence counts
- Activity (%) Repeat 1 ([1]; 0.001 μM, Table 37): 88%
- Activity (%) Repeat 2 ([1]; 0.001 μM, Table 37): 83%
- Inhibition (%) ([1]; 0.001 μM, Table 37): 15%
- Net Signal (Fluorescence counts) Repeat 1 ([1]; 0.001 μM, Table 37): 52418 Fluorescence counts
- Net Signal (Fluorescence counts) Repeat 2 ([1]; 0.001 μM, Table 37): 49644 Fluorescence counts
- Activity (%) Repeat 1 ([1]; 10 nM, Table 35): 51%
- Activity (%) Repeat 2 ([1]; 10 nM, Table 35): 54%
- Inhibition (%) ([1]; 10 nM, Table 35): 48%
- Net Signal (Fluorescence counts) Repeat 1 ([1]; 10 nM, Table 35): 5170 Fluorescence counts
- Net Signal (Fluorescence counts) Repeat 2 ([1]; 10 nM, Table 35): 5444 Fluorescence counts
- Activity (%) Repeat 1 ([1]; 10 nM, Table 36): 64%
- Activity (%) Repeat 2 ([1]; 10 nM, Table 36): 59%
- Inhibition (%) ([1]; 10 nM, Table 36): 38%
- Net Signal (Fluorescence counts) Repeat 1 ([1]; 10 nM, Table 36): 5727 Fluorescence counts
- Net Signal (Fluorescence counts) Repeat 2 ([1]; 10 nM, Table 36): 5326 Fluorescence counts
- Activity (%) Repeat 1 ([1]; 0.01 μM, Table 37): 36%
- Activity (%) Repeat 2 ([1]; 0.01 μM, Table 37): 33%
- Inhibition (%) ([1]; 0.01 μM, Table 37): 66%
- Net Signal (Fluorescence counts) Repeat 1 ([1]; 0.01 μM, Table 37): 21262 Fluorescence counts
- Net Signal (Fluorescence counts) Repeat 2 ([1]; 0.01 μM, Table 37): 19656 Fluorescence counts
- Activity (%) Repeat 1 ([1]; 0.1 μM, Table 37): 5%
- Activity (%) Repeat 2 ([1]; 0.1 μM, Table 37): 6%
- Inhibition (%) ([1]; 0.1 μM, Table 37): 95%
- Net Signal (Fluorescence counts) Repeat 1 ([1]; 0.1 μM, Table 37): 3091 Fluorescence counts
- Net Signal (Fluorescence counts) Repeat 2 ([1]; 0.1 μM, Table 37): 3478 Fluorescence counts
- Activity (%) Repeat 1 ([1]; 100 nM, Table 35): 9%
- Activity (%) Repeat 2 ([1]; 100 nM, Table 35): 9%
- Inhibition (%) ([1]; 100 nM, Table 35): 91%
- Net Signal (Fluorescence counts) Repeat 1 ([1]; 100 nM, Table 35): 958 Fluorescence counts
- Net Signal (Fluorescence counts) Repeat 2 ([1]; 100 nM, Table 35): 960 Fluorescence counts
- Activity (%) Repeat 1 ([1]; 100 nM, Table 36): 11%
- Activity (%) Repeat 2 ([1]; 100 nM, Table 36): 12%
- Inhibition (%) ([1]; 100 nM, Table 36): 89%
- Net Signal (Fluorescence counts) Repeat 1 ([1]; 100 nM, Table 36): 1009 Fluorescence counts
- Net Signal (Fluorescence counts) Repeat 2 ([1]; 100 nM, Table 36): 1033 Fluorescence counts

SMILES: O=c1cc(-c2ccc(O)cc2)oc2cc(O)cc(O)c12 [Apigenin]
- Net Signal (Fluorescence counts) Repeat 1 (recombinant human CD38; 1 μM, Table 61): 3461 Fluorescence counts
- Net Signal (Fluorescence counts) Repeat 2 (recombinant human CD38; 1 μM, Table 61): 3761 Fluorescence counts
- inhibition at 1 µM (recombinant human CD38; 1 μM, Table 61): 14%
- activity at 1 µM (recombinant human CD38; 1 μM, Table 61, read-out: Activity (%) Repeat 1): 82%
- activity at 1 µM (recombinant human CD38; 1 μM, Table 61, read-out: Activity (%) Repeat 2): 89%
- Net Signal (Fluorescence counts) Repeat 1 (recombinant human CD38; 1 μM, Table 62): 8650 Fluorescence counts
- Net Signal (Fluorescence counts) Repeat 2 (recombinant human CD38; 1 μM, Table 62): 8614 Fluorescence counts
- inhibition at 1 µM (recombinant human CD38; 1 μM, Table 62): 6%
- activity at 1 µM (recombinant human CD38; 1 μM, Table 62, read-out: Activity (%) Repeat 1): 94%
- activity at 1 µM (recombinant human CD38; 1 μM, Table 62, read-out: Activity (%) Repeat 2): 94%
- Net Signal (Fluorescence counts) Repeat 1 (recombinant human CD38; 1 μM, Table 63): 11531 Fluorescence counts
- Net Signal (Fluorescence counts) Repeat 2 (recombinant human CD38; 1 μM, Table 63): 11647 Fluorescence counts
- inhibition at 1 µM (recombinant human CD38; 1 μM, Table 63): 14%
- activity at 1 µM (recombinant human CD38; 1 μM, Table 63, read-out: Activity (%) Repeat 1): 86%
- activity at 1 µM (recombinant human CD38; 1 μM, Table 63, read-out: Activity (%) Repeat 2): 86%
- Net Signal (Fluorescence counts) Repeat 1 (recombinant human CD38; 1 μM, TABLE 64): 4138 counts
- Net Signal (Fluorescence counts) Repeat 2 (recombinant human CD38; 1 μM, TABLE 64): 3883 counts
- inhibition at 1 µM (recombinant human CD38; 1 μM, TABLE 64): 8%
- activity at 1 µM (recombinant human CD38; 1 μM, TABLE 64, read-out: Activity (%) Repeat 1): 95%
- activity at 1 µM (recombinant human CD38; 1 μM, TABLE 64, read-out: Activity (%) Repeat 2): 89%
- Net Signal (Fluorescence counts) Repeat 1 (recombinant human CD38; 10 μM, Table 61): 647 Fluorescence counts
- Net Signal (Fluorescence counts) Repeat 2 (recombinant human CD38; 10 μM, Table 61): 618 Fluorescence counts
- inhibition at 10 µM (recombinant human CD38; 10 μM, Table 61): 85%
- activity at 10 µM (recombinant human CD38; 10 μM, Table 61, read-out: Activity (%) Repeat 1): 15%
- activity at 10 µM (recombinant human CD38; 10 μM, Table 61, read-out: Activity (%) Repeat 2): 14%
- Net Signal (Fluorescence counts) Repeat 1 (recombinant human CD38; 10 μM, Table 62): 4670 Fluorescence counts
- Net Signal (Fluorescence counts) Repeat 2 (recombinant human CD38; 10 μM, Table 62): 5416 Fluorescence counts
- inhibition at 10 µM (recombinant human CD38; 10 μM, Table 62): 45%
- activity at 10 µM (recombinant human CD38; 10 μM, Table 62, read-out: Activity (%) Repeat 1): 51%
- activity at 10 µM (recombinant human CD38; 10 μM, Table 62, read-out: Activity (%) Repeat 2): 59%
- Net Signal (Fluorescence counts) Repeat 1 (recombinant human CD38; 10 μM, Table 63): 7118 Fluorescence counts
- Net Signal (Fluorescence counts) Repeat 2 (recombinant human CD38; 10 μM, Table 63): 7228 Fluorescence counts
- inhibition at 10 µM (recombinant human CD38; 10 μM, Table 63): 47%
- activity at 10 µM (recombinant human CD38; 10 μM, Table 63, read-out: Activity (%) Repeat 1): 53%
- activity at 10 µM (recombinant human CD38; 10 μM, Table 63, read-out: Activity (%) Repeat 2): 54%
- Net Signal (Fluorescence counts) Repeat 1 (recombinant human CD38; 10 μM, TABLE 64): 3091 counts
- Net Signal (Fluorescence counts) Repeat 2 (recombinant human CD38; 10 μM, TABLE 64): 3057 counts
- inhibition at 10 µM (recombinant human CD38; 10 μM, TABLE 64): 30%
- activity at 10 µM (recombinant human CD38; 10 μM, TABLE 64, read-out: Activity (%) Repeat 1): 70%
- activity at 10 µM (recombinant human CD38; 10 μM, TABLE 64, read-out: Activity (%) Repeat 2): 70%
- Net Signal (Fluorescence counts) Repeat 1 (recombinant human CD38; 100 μM, Table 61): 185 Fluorescence counts
- Net Signal (Fluorescence counts) Repeat 2 (recombinant human CD38; 100 μM, Table 61): 135 Fluorescence counts
- inhibition at 100 µM (recombinant human CD38; 100 μM, Table 61): 96%
- activity at 100 µM (recombinant human CD38; 100 μM, Table 61, read-out: Activity (%) Repeat 1): 4%
- activity at 100 µM (recombinant human CD38; 100 μM, Table 61, read-out: Activity (%) Repeat 2): 3%
- Net Signal (Fluorescence counts) Repeat 1 (recombinant human CD38; 100 μM, Table 62): 1979 Fluorescence counts
- Net Signal (Fluorescence counts) Repeat 2 (recombinant human CD38; 100 μM, Table 62): 2165 Fluorescence counts
- inhibition at 100 µM (recombinant human CD38; 100 μM, Table 62): 78%
- activity at 100 µM (recombinant human CD38; 100 μM, Table 62, read-out: Activity (%) Repeat 1): 21%
- activity at 100 µM (recombinant human CD38; 100 μM, Table 62, read-out: Activity (%) Repeat 2): 23%
- Net Signal (Fluorescence counts) Repeat 1 (recombinant human CD38; 100 μM, Table 63): 5012 Fluorescence counts
- Net Signal (Fluorescence counts) Repeat 2 (recombinant human CD38; 100 μM, Table 63): 5473 Fluorescence counts
- inhibition at 100 µM (recombinant human CD38; 100 μM, Table 63): 61%
- activity at 100 µM (recombinant human CD38; 100 μM, Table 63, read-out: Activity (%) Repeat 1): 37%
- activity at 100 µM (recombinant human CD38; 100 μM, Table 63, read-out: Activity (%) Repeat 2): 40%
- Net Signal (Fluorescence counts) Repeat 1 (recombinant human CD38; 100 μM, TABLE 64): 632 counts
- Net Signal (Fluorescence counts) Repeat 2 (recombinant human CD38; 100 μM, TABLE 64): 728 counts
- inhibition at 100 µM (recombinant human CD38; 100 μM, TABLE 64): 85%
- activity at 100 µM (recombinant human CD38; 100 μM, TABLE 64, read-out: Activity (%) Repeat 1): 14%
- activity at 100 µM (recombinant human CD38; 100 μM, TABLE 64, read-out: Activity (%) Repeat 2): 16%
